Read-outs that look alike come from different tables or passages of the source. *1 amine or outer side, *2 acyl side, *3 side chain or, on linkers, in order; H or OH if unused. Where a SMILES comes first, the peptide text is derived from it. Bridges are numbered along the chain shown (N, C = ends). [ ]: non-standard residue; d: D form. The star is where a group is joined. NODAGA = O=C(O)CN1CCN(CC(=O)O)CCN(C(CCC(=O)*)C(=O)O)CC1; X1 = NC(=O)Nc1ccc(CC(N[*:1])C(=O)[*:2])cc1; Phe(4-Cl) = N[CH](Cc1ccc(Cl)cc1)C(=O)O
Experiments:
[1] = system: HEK-SST2 xenograft mice; settings: athymic nude Foxn1^nu, mouse, in vivo, 4 h
Procedure: (§2) Unless otherwise specified, the in vivo studies were performed on athymic nude Foxn1^nu 4-6 weeks-old mice. Animals were injected in the shoulder with HEK-SST2 cells (10^7 cells/200 μL) suspended in PBS. The in vivo experiments were performed when tumors reached a volume between 100-500 mm. At the intervention, all mice were between 7 and 11 weeks old.
(§3) The specificity study was performed parallel to pharmacokinetics studies. For this reason, NODAGA-LM3 was radiolabeled with ^64Cu.
(§4) The specificity of [^64Cu]Cu-NODAGA-LM3 for SSTR2-expressing tissues was evaluated in HEK-SST2 xenograft mice through a blocking study. The mice were administered with 0.15 MBq of [^64Cu]Cu-NODAGA-LM3 co-injected with a 2000-fold excess of DOTA-LM3 as a blocking agent. The mice were sacrificed 4 hours post-injection, and the organs were collected. weighed, and counted in a gamma counter.

[2] = in vivo; settings: athymic nude Foxn1^nu, mouse, total radioactivity
Procedure: as §2, §3, §4

[3] = system: well-differentiated BP and GEP neuroendocrine tumors (NET); assay: Human clinical trial, PET/CT imaging vs [^68Ga]Ga-DOTATOC PET/CT; type: in vivo; settings: Subjects 1-4 and 6
Procedure: The study will be a prospective, open-label, controlled, reader-blind, single center, phase I/II PET/CT study.
The study product will be a single intravenous administration of GMP produced [^61Cu]Cu-NODAGA-LM3 followed by up to three PET/CT acquisitions. [^61Cu]Cu-NODAGA-LM3 will be administered once intravenously at an amount of 20-40 μg (or 13-26 nmol) and an activity range of 150 MBq (±25%).
The control intervention will be [^68Ga]Ga-DOTA-TOC PET/CT (150 MBq (±25%)) (including CE-CT), is acquired as standard of care and not part of the study, but scan results will be used as comparator for the diagnostic efficacy analysis (Phase II).
The diagnostic efficacy analysis (sensitivity, tumor uptake and image contrast (TBR), will be done in comparison with [^68Ga]Ga-DOTA-TOC PET/CT acquired as standard of care in a randomized, cross-over order. Readers of the scans will be blinded for imaging time point, tracers and clinical data and will follow a locked-read methodology. Number of Participants and Rationale: n=27 patients (including 22 patients for the sensitivity analysis powered for both superiority and non-inferiority design and 5 patients with negative [^68Ga]Ga-DOTATOC PET/CT and a positive NETest) […]

[4] = system: HEK-SST2 xenografted mice; assay: Biodistribution studies; type: in vivo; settings: 4 hours post-injection, 1 MBq i.v.
Procedure: (§1) The dose of the administered radiopharmaceutical was 1 MBq ([…]) diluted to 100 μL with saline solution. The mice were euthanized at 4 hours post-injection, and the organs of interest were collected, rinsed, blotted, weighed, and analyzed in a gamma counter. The results were expressed as the percentage of injected activity per gram of tissue (% IA/g) and reported as mean±standard deviation in Table 32.

[5] = Biodistribution studies; type: in vivo, mice; settings: athymic nude Foxn1^nu, mouse, iv, 1 MBq, total radioactivity
Procedure: as §1

[6] = type: physicochemical; settings: pH 7.4
Procedure: The mixture was vortexed for 30 min and then centrifuged at 3000 rpm to achieve phase separation. Aliquots from each phase were collected and measured in a gamma counter. The distribution coefficient was calculated as the average logarithmic values of the ratio between the radioactivity in the organic and the PBS phase.

For `CC(O)C1NC(=O)C(CCCCN)NC(=O)C(Cc2ccc(NC(N)=O)cc2)NC(=O)C(Cc2ccc(O)cc2)NC(=O)C(NC(=O)C(Cc2ccc(Cl)cc2)NC(=O)CCC(C(=O)O)N2CCN(CC(=O)O)CCN(CC(=O)O)CC2)CSSCC(C(=O)NC(Cc2ccc(O)cc2)C(N)=O)NC1=O` (centres unmarked) [[^61Cu]Cu-NODAGA-LM3, metal not drawn] ({NODAGA}-[Phe(4-Cl)]CY[X1]KTCY-NH2; disulfide 2-7; configuration not given here), the “Uptake Blood” value [1] was 0.10 ± 0.02 % IA/g, the “Uptake Heart” value [1] was 0.20 ± 0.01 % IA/g and the “Uptake Liver” value [1] was 0.90 ± 0.20 % IA/g. For the same compound, the “Uptake Muscle” value [1] was 0.02 ± 0.01 % IA/g, the tissue uptake at 4 h ([2]; 0.15 MBq, Uptake Bone) was 0.39 ± 0.07 %ID/g and the tissue uptake at 4 h ([2]; 0.15 MBq, Uptake Pancreas) was 0.55 ± 0.1 %ID/g. It also gave a tissue uptake at 4 h ([2]; 0.15 MBq, Uptake Stomach) of 1.31 ± 0.55 %ID/g, a tissue uptake at 4 h ([2]; 0.15 MBq, Uptake Tumor) of 37.9 ± 3.43 %ID/g and a tissue uptake at 4 h ([2]; Uptake Blood) of 0.11 ± 0.05 %ID/g. It also gave a tissue uptake at 4 h ([2]; Uptake Bone) of 0.01 ± 0.01 %ID/g, a tissue uptake at 4 h ([2]; Uptake Heart) of 0.14 ± 0.07 %ID/g and a tissue uptake at 4 h ([2]; Uptake Intestine) of 0.46 ± 0.01 %ID/g. For the same compound, the tissue uptake at 4 h ([2]; Uptake Kidney) was 3.52 ± 0.93 %ID/g, the tissue uptake at 4 h ([2]; Uptake Liver) was 0.96 ± 0.14 %ID/g and the tissue uptake at 4 h ([2]; Uptake Lung) was 0.67 ± 0.25 %ID/g. The tissue uptake at 4 h ([2]; Uptake Muscle) was 0.03 ± 0.01 %ID/g, the tissue uptake at 4 h ([2]; Uptake Pancreas) was 0.12 ± 0.03 %ID/g and the tissue uptake at 4 h ([2]; Uptake Spleen) was 0.21 ± 0.06 %ID/g. It also gave a tissue uptake at 4 h ([2]; Uptake Stomach) of 0.43 ± 0.14 %ID/g, a tissue uptake at 4 h ([2]; Uptake Tumor) of 0.52 ± 0.18 %ID/g and a tissue uptake at 4 h ([2]; female, iv, 0.15 MBq, Uptake Intestine) of 0.46 ± 0.04 %ID/g. It also gave a tissue uptake at 4 h ([2]; female, iv, 0.15 MBq, Uptake Kidney) of 4.41 ± 0.74 %ID/g, a tissue uptake at 4 h ([2]; female, iv, 0.15 MBq, Uptake Lung) of 0.6 ± 0.17 %ID/g and a tissue uptake at 4 h ([2]; female, iv, 0.15 MBq, Uptake Spleen) of 0.21 ± 0.1 %ID/g. For the same compound, the “physiological uptake in the liver, spleen, and GI tract” value [3] was “very low physiological uptake”, the “Uptake [% IA/g] Kidneys” value [4] was 3.87±0.51 % IA/g and the tissue to tissue ratio at 4 h ([5]; in vivo, Tumor-to-organ uptake ratio Tumor/Blood) was 181. It also gave a tissue to tissue ratio at 4 h ([5]; in vivo, Tumor-to-organ uptake ratio Tumor/Liver) of 26, a tissue to tissue ratio at 4 h ([5]; in vivo, Tumor-to-organ uptake ratio Tumor/Muscles) of 185 and a tissue to tissue ratio at 4 h ([5]; in vivo, Tumor-to-organ uptake ratio Tumor/Pituitary) of 5.3. The tissue uptake at 4 h ([5]; in vivo, Uptake [% IA/g] Adrenal) was 0.61 ± 0.18 %ID/g, the tissue uptake at 4 h ([5]; in vivo, Uptake [% IA/g] Blood) was 0.11 ± 0.01 %ID/g and the tissue uptake at 4 h ([5]; in vivo, Uptake [% IA/g] Bone) was 0.42 ± 0.12 %ID/g. For the same compound, the tissue uptake at 4 h ([5]; in vivo, Uptake [% IA/g] HEK-STT2-tumor) was 19 ± 2.1 %ID/g, the tissue uptake at 4 h ([5]; in vivo, Uptake [% IA/g] Heart) was 0.17 ± 0.02 %ID/g and the tissue uptake at 4 h ([5]; in vivo, Uptake [% IA/g] Intestine) was 0.58 ± 0.12 %ID/g. For the same compound, the tissue uptake at 4 h ([5]; in vivo, Uptake [% IA/g] Liver) was 0.73 ± 0.06 %ID/g, the tissue uptake at 4 h ([5]; in vivo, Uptake [% IA/g] Lung) was 0.42 ± 0.05 %ID/g and the tissue uptake at 4 h ([5]; in vivo, Uptake [% IA/g] Muscle) was 0.1 ± 0.02 %ID/g. It also gave a tissue uptake at 4 h ([5]; in vivo, Uptake [% IA/g] Pancreas) of 0.44 ± 0.24 %ID/g, a tissue uptake at 4 h ([5]; in vivo, Uptake [% IA/g] Pituitary) of 3.64 ± 0.31 %ID/g and a tissue uptake at 4 h ([5]; in vivo, Uptake [% IA/g] Spleen) of 0.18 ± 0.02 %ID/g. The tissue uptake at 4 h ([5]; in vivo, Uptake [% IA/g] Stomach) was 0.79 ± 0.13 %ID/g, the tissue uptake at 4 h ([5]; kidneys, 4 hours post-injection, 1 MBq i.v., read-out: Uptake [% IA/g] Kidneys) was 3.87 ± 0.51 %ID/g and the tissue to tissue ratio at 4 h ([5]; tumor / all organs except kidneys, 4 hours post-injection, read-out: tumor-to-organ uptake ratio, all the organs except for kidneys) was over 5. It also gave a tissue to tissue ratio at 4 h ([5]; tumor/kidney, 4 hours post-injection, read-out: Tumor-to-organ uptake ratio Tumor/Kidney) of 4.9 and a logD [6] of -2.95 ± 0.08.
